Converted amounts (≈) assume the structure as drawn. “And” between values parts separate entries of the source, which are not always exact repeats. Equal values may be shown once.
Legend:
[1] = target: T1, S. aureus α-hemolysin (αHL) (Staphylococcus aureus, UniProt P09616); assay: cell-based
S. aureus 8325-4 [2] = assay: microbe, parasite or virus in culture; assay type: cell-based, Staphylococcus aureus; conditions: for MBC: Staphylococcus aureus, 83254, 24 h, read-out: Minimal bactericidal concentration MBC
S. aureus 8325-4 [3] = assay: microbe, parasite or virus in culture; assay type: cell-based; conditions: Staphylococcus aureus, 83254, Erythrocyte, in Ovis aries, read-out: IC50 (antihemolytic)
S. aureus NCTC 5655 [4] = assay: microbe, parasite or virus in culture; assay type: cell-based, Staphylococcus aureus; conditions: for MBC: Staphylococcus aureus, NCTC5655, 24 h, read-out: Minimal bactericidal concentration MBC
S. aureus NCTC 5655 [5] = assay: microbe, parasite or virus in culture; assay type: cell-based; conditions: Staphylococcus aureus, NCTC5655, Erythrocyte, in Ovis aries, read-out: IC50 (antihemolytic)
erythrocyte membrane = assay type: cell-based, sheep
[6] = target: T1, S. aureus α-hemolysin (αHL); conditions: sheep

T1 sequence (P09616 27-319 limits assumed): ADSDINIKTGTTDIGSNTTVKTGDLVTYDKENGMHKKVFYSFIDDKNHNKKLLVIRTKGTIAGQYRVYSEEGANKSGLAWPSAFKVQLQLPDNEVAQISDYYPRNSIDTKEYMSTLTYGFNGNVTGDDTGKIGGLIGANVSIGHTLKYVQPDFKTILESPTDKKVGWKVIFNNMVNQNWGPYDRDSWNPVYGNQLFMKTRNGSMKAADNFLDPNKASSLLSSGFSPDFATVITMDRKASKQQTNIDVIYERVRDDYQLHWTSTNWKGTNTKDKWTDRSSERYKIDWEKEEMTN

| SMILES | IC50 [1] | MBC (S. aureus 8325-4 [2]) | IC50 (S. aureus 8325-4 [3]) | MBC (S. aureus NCTC 5655 [4]) | IC50 (S. aureus NCTC 5655 [5]) | order parameter S/S0 (erythrocyte membrane) | increase of IC50 after washing of erythrocytes [6] | Minimal bactericidal concentration MBC (S. aureus 8325-4 [2]) | Minimal bactericidal concentration MBC (S. aureus NCTC 5655 [4]) |
| --- | --- | --- | --- | --- | --- | --- | --- | --- | --- |
| O=C(OCC1OC(OC(=O)c2cc(O)c(O)c(O)c2)C(OC(=O)c2cc(O)c(O)c(O)c2)C(OC(=O)c2cc(O)c(O)c(OC(=O)c3cc(O)c(O)c(O)c3)c2)C1OC(=O)c1cc(O)c(O)c(O)c1)c1cc(O)c(O)c(OC(=O)c2cc(O)c(O)c(O)c2)c1 [Compound T1, 3,6-bis-O-di-O-galloyl-1,2,4-tri-O-galloyl-β-D-glucose] | 2.94 ± 1.45 µM | 50 µM (≈ 62.2 µg/mL) | 8.7 ± 0.81 µM | 25 µM (≈ 31.1 µg/mL) | 7.26 ± 0.29 µM | – | – | – | – |
| O=C(OCC1OC(OC(=O)c2cc(O)c(O)c(O)c2)C(OC(=O)c2cc(O)c(O)c(O)c2)C(OC(=O)c2cc(O)c(O)c(O)c2)C1OC(=O)c1cc(O)c(O)c(O)c1)c1cc(O)c(O)c(O)c1 [Compound T2, 1,2,3,4,5-penta-O-galloyl-β-D-glucose] | 3.52 ± 1.37 µM | 75 µM (≈ 70.6 µg/mL) | 22.4 ± 2.8 µM | 50 µM (≈ 47 µg/mL) | 13 ± 1.18 µM | 1.267 ± 0.0398 and 0.662 ± 0.072 | – | – | – |
| O=C(OC1C(O)C(CO)OC2OC(=O)c3cc(Oc4c(C(=O)O)cc(O)c(O)c4O)c(O)c(O)c3-c3c(cc(O)c(O)c3O)C(=O)OC21)c1cc(O)c(O)c(O)c1 [Compound T3, 3-O-galloyl-1,2-valoneoyl-β-D-glucose] | 27.5 ± 1.06 µM | 100 µM (≈ 80.3 µg/mL) | 52.2 ± 1.2 µM | 100 µM (≈ 80.3 µg/mL) | 90.6 ± 22.7 µM | 0.947 ± 0.028 and 0.911 ± 0.042 | approximately 40 fold | – | – |
| O=C(OC1OC2COC(=O)c3cc(Oc4c(C(=O)O)cc(O)c(O)c4O)c(O)c(O)c3-c3c(cc(O)c(O)c3O)C(=O)OC2C(O)C1OC(=O)c1cc(O)c(O)c(O)c1)c1cc(O)c(O)c(O)c1 [Compound T4, 1,2-di-O-galloyl-4,6-valoneoyl-β-D-glucose] | 14.5 ± 1.1 µM | 100 µM (≈ 95.5 µg/mL) | 60.4 ± 3.3 µM | 100 µM (≈ 95.5 µg/mL) | 59.5 ± 9.6 µM | 1.074 ± 0.059 and 0.885 ± 0.073 | approximately 40 fold | 75 µM (≈ 71.6 µg/mL) | 75 µM (≈ 71.6 µg/mL) |
